Data from ChEMBL document CHEMBL1201862, “PubChem BioAssay data set” (2004).
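Briefly, cells in 96-well plates were exposed to five compound concentrations for 48 h, and endpoints were estimated by linear interpolation. The concentration for 50% growth inhibition is given as GI50.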 Activity calls are given as the source filed them. Cut-off read from the data, not from the text of the source: active = GI50 up to about 1.1 µM and inactive = higher.

Legend:
Experiment in all cases: inhibition of tumour cell growth, NCI panel, 48 h
[1] = system: Malme-3M
[2] = system: SK-OV-3
[3] = system: HOP-92
[4] = system: HCT-15
[5] = system: MDA-N
[6] = system: OVCAR-3
[7] = system: SNB-19
[8] = system: A498
[9] = system: K562
[10] = system: ACHN
[11] = system: CCRF-CEM
[12] = system: MDA-MB-231
[13] = system: 786-0
[14] = system: HCC 2998
[15] = system: IGROV-1
[16] = system: SR
[17] = system: COLO 205
[18] = system: Hs-578T
[19] = system: HCT-116
[20] = system: HT-29
[21] = system: BT-549
[22] = system: NCI-H522
[23] = system: UACC-62
[24] = system: OVCAR-4
[25] = system: NCI-H226
[26] = system: MCF7
[27] = system: MDA-MB-435
[28] = system: KM12
[29] = system: HL-60
[30] = system: SNB-75
[31] = system: SF-268
[32] = system: SK-MEL-5
[33] = system: RPMI-8226
[34] = system: OVCAR-5
[35] = system: NCI-H23
[36] = system: PC-3
[37] = system: NCI/ADR-RES
[38] = system: SN12C
[39] = system: LOX IMVI
[40] = system: UO-31
[41] = system: HOP-62
[42] = system: SF-295
[43] = system: M14
[44] = system: U-251
[45] = system: DU-145
[46] = system: MOLT-4
[47] = system: SW-620
[48] = system: RXF 393
[49] = system: A549
[50] = system: NCI-H460
[51] = system: SK-MEL-28
[52] = system: T47D
[53] = system: OVCAR-8
[54] = system: TK-10
[55] = system: SF-539
[56] = system: UACC-257
[57] = system: EKVX
[58] = system: SK-MEL-2
[59] = system: CAKI-1

CC(C)=CCNc1ncnc2c1ncn2CCC(=O)OC(C)(C)C
GI50 [1]: > 100 µM (inactive) | GI50 [2]: 26.2 µM (inactive) | GI50 [3]: 49.7 µM (inactive) | GI50 [4]: > 100 µM | GI50 [5]: > 100 µM (inactive) | GI50 [6]: > 100 µM (inactive) | GI50 [7]: > 100 µM (inactive) | GI50 [8]: > 100 µM (inactive) | GI50 [9]: 18.4 µM (inactive) | GI50 [10]: > 100 µM (inactive) | GI50 [11]: 22 µM (inactive) | GI50 [12]: > 100 µM (inactive) | GI50 [13]: > 100 µM (inactive) | GI50 [14]: > 100 µM (inactive) | GI50 [15]: > 100 µM (inactive) | GI50 [16]: 52.2 µM (inactive) | GI50 [17]: > 100 µM (inactive) | GI50 [18]: 12.4 µM (inactive) | GI50 [19]: > 100 µM (inactive) | GI50 [20]: > 100 µM (inactive) | GI50 [21]: 37.5 µM (inactive) | GI50 [22]: > 100 µM (inactive) | GI50 [23]: 38.3 µM (inactive) | GI50 [24]: 4.81 µM (inactive) | GI50 [25]: > 100 µM (inactive) | GI50 [26]: > 100 µM (inactive) | GI50 [27]: > 100 µM (inactive) | GI50 [28]: > 100 µM (inactive) | GI50 [29]: > 100 µM (inactive) | GI50 [30]: 13 µM (inactive) | GI50 [31]: > 100 µM (inactive) | GI50 [32]: 21.4 µM (inactive) | GI50 [33]: 72.3 µM (inactive) | GI50 [34]: > 100 µM (inactive) | GI50 [35]: > 100 µM (inactive) | GI50 [36]: 34.8 µM (inactive) | GI50 [37]: 42.9 µM (inactive) | GI50 [38]: > 100 µM (inactive) | GI50 [39]: > 100 µM (inactive) | GI50 [40]: 22.7 µM (inactive) | GI50 [41]: > 100 µM (inactive) | GI50 [42]: > 100 µM (inactive) | GI50 [43]: > 100 µM (inactive) | GI50 [44]: 63.8 µM (inactive) | GI50 [45]: > 100 µM (inactive) | GI50 [46]: 14.2 µM (inactive) | GI50 [47]: > 100 µM (inactive) | GI50 [48]: 36.1 µM (inactive) | GI50 [49]: > 100 µM (inactive) | GI50 [50]: > 100 µM (inactive) | GI50 [51]: > 100 µM (inactive) | GI50 [52]: 24.8 µM (inactive) | GI50 [53]: > 100 µM (inactive) | GI50 [54]: > 100 µM (inactive) | GI50 [55]: > 100 µM (inactive)

O=C(c1ccco1)C1CC(c2c(O)ccc3ccccc23)=NN1 (stereo not given)
GI50 [1]: 16 µM (inactive) | GI50 [2]: 21 µM (inactive) | GI50 [3]: 13.6 µM (inactive) | GI50 [4]: 19 µM | GI50 [5]: 12.6 µM (inactive) | GI50 [6]: 12.2 µM (inactive) | GI50 [7]: 16.4 µM (inactive) | GI50 [56]: 20.6 µM (inactive) | GI50 [8]: 18.4 µM (inactive) | GI50 [9]: 12.4 µM (inactive) | GI50 [10]: 12.5 µM (inactive) | GI50 [11]: 9.71 µM (inactive) | GI50 [57]: 13.2 µM (inactive) | GI50 [12]: 13.2 µM (inactive) | GI50 [14]: 12.1 µM (inactive) | GI50 [15]: 13.3 µM (inactive) | GI50 [16]: 2.72 µM (inactive) | GI50 [17]: 6.37 µM (inactive) | GI50 [18]: 18.5 µM (inactive) | GI50 [20]: 11.8 µM (inactive) | GI50 [21]: 14.9 µM (inactive) | GI50 [22]: 4.2 µM (inactive) | GI50 [23]: 12.6 µM (inactive) | GI50 [24]: 25.4 µM (inactive) | GI50 [25]: 15.2 µM (inactive) | GI50 [26]: 3.15 µM (inactive) | GI50 [27]: 4.55 µM (inactive) | GI50 [28]: 11.4 µM (inactive) | GI50 [29]: 13.5 µM (inactive) | GI50 [30]: 11.8 µM (inactive) | GI50 [31]: 10.1 µM (inactive) | GI50 [32]: 13.9 µM (inactive) | GI50 [33]: 13.6 µM (inactive) | GI50 [34]: 14.9 µM (inactive) | GI50 [35]: 17.1 µM (inactive) | GI50 [36]: 8.79 µM (inactive) | GI50 [37]: 17.9 µM (inactive) | GI50 [38]: 20.1 µM (inactive) | GI50 [40]: 11.1 µM (inactive) | GI50 [41]: 13.8 µM (inactive) | GI50 [42]: 11.2 µM (inactive) | GI50 [43]: 11.9 µM (inactive) | GI50 [58]: 16.6 µM (inactive) | GI50 [44]: 14.7 µM (inactive) | GI50 [45]: 14.1 µM (inactive) | GI50 [46]: 12.1 µM (inactive) | GI50 [47]: 11.8 µM (inactive) | GI50 [48]: 17.4 µM (inactive) | GI50 [50]: 7.85 µM (inactive) | GI50 [51]: 21 µM (inactive) | GI50 [52]: 3.33 µM (inactive) | GI50 [59]: 16.2 µM (inactive) | GI50 [53]: 18.3 µM (inactive) | GI50 [54]: 14.3 µM (inactive) | GI50 [55]: 13.1 µM (inactive)
